Laboratory results: patent publication US8329756B2, “Drug for treatment of colon cancer” (Oncophor, LLC, priority 2009, dated 2012)

Tested on: DLD-1 cells
Experiment: in vitro test with cancerous DLD1 colon cells treated continuously
Type: cell-based
Conditions: continuous treatment, about 125 μg·ml of Formula (2)
Protocol: FIG. 1 illustrates the survival percentage colon DLD-1 carcinoma cells […] after continuous treatment with Formula (2).
FIG. 1 illustrates the results of an in vitro test with cancerous DLD1 colon cells treated continuously with Formula (2). The survival percentage for DLD-1 cells decreases from 100 percent without treatment to less than 1 percent in the presence of continuous treatment of about 125 μg·ml of Formula (2).

SMILES: Cc1cccc(NC(C)c2ccccc2C)c1 (stereo not shown) [Formula (2), 3-methyl-N-(1-o-tolylethyl)benxenamine]
- survival percentage for DLD-1 cells: less than 1%
